Data taken from ChEMBL document CHEMBL1201862, “PubChem BioAssay data set” (2004).
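Step 1: Grow cells in 96-well plates. Step 2: Expose to compound for 48 hours at 5 concentrations. Step 3: Interpolate endpoints linearly; if unreached, use highest concentration. Abbreviation: GI50, concentration required for 50% inhibition of growth.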 The source made the active and inactive calls. Cut-off read from the data, not from the text of the source: active = GI50 up to about 1.1 µM and inactive = higher.

Experiments:
Assay in all cases: growth of human tumour cells (NCI), 48 h
RXF 393 = system: RXF 393
UACC-257 = system: UACC-257
CCRF-CEM = system: CCRF-CEM
MDA-MB-435 = system: MDA-MB-435
SK-MEL-2 = system: SK-MEL-2
SF-295 = system: SF-295
ACHN = system: ACHN
COLO 205 = system: COLO 205
UO-31 = system: UO-31
OVCAR-3 = system: OVCAR-3
RPMI-8226 = system: RPMI-8226
SF-268 = system: SF-268
MDA-N = system: MDA-N
MCF7 = system: MCF7
SK-MEL-5 = system: SK-MEL-5
SW-620 = system: SW-620
HCT-15 = system: HCT-15
K562 = system: K562
786-0 = system: 786-0
DU-145 = system: DU-145
A498 = system: A498
M14 = system: M14
NCI/ADR-RES = system: NCI/ADR-RES
UACC-62 = system: UACC-62
EKVX = system: EKVX
A549 = system: A549
SK-MEL-28 = system: SK-MEL-28
SNB-75 = system: SNB-75
TK-10 = system: TK-10
KM12 = system: KM12
CAKI-1 = system: CAKI-1
SF-539 = system: SF-539
NCI-H23 = system: NCI-H23
IGROV-1 = system: IGROV-1
T47D = system: T47D
HOP-92 = system: HOP-92
SN12C = system: SN12C
MOLT-4 = system: MOLT-4
MDA-MB-231 = system: MDA-MB-231
BT-549 = system: BT-549
SNB-19 = system: SNB-19
Hs-578T = system: Hs-578T
SR = system: SR
HOP-62 = system: HOP-62
HCC 2998 = system: HCC 2998
PC-3 = system: PC-3
NCI-H460 = system: NCI-H460
OVCAR-5 = system: OVCAR-5
HT-29 = system: HT-29
NCI-H226 = system: NCI-H226
Malme-3M = system: Malme-3M
OVCAR-8 = system: OVCAR-8
SK-OV-3 = system: SK-OV-3
OVCAR-4 = system: OVCAR-4
U-251 = system: U-251
NCI-H522 = system: NCI-H522
HCT-116 = system: HCT-116
LOX IMVI = system: LOX IMVI
HL-60 = system: HL-60

Measured: GI50

CCCN(CCC)C1CCc2c(ccc3cc[nH]c23)C1 (centres undefined)
inactive: RXF 393 > 100 µM | UACC-257 26.7 µM | CCRF-CEM 26.3 µM | MDA-MB-435 89.3 µM | SK-MEL-2 > 100 µM | SF-295 > 100 µM | ACHN > 100 µM | COLO 205 29.8 µM | UO-31 49 µM | OVCAR-3 61.4 µM | RPMI-8226 41 µM | SF-268 94.2 µM | MDA-N > 100 µM | MCF7 77.3 µM | SK-MEL-5 20.7 µM | SW-620 > 100 µM | K562 30.5 µM | 786-0 > 100 µM | DU-145 > 100 µM | A498 > 100 µM | M14 17.7 µM | NCI/ADR-RES > 100 µM | UACC-62 50.9 µM | EKVX > 100 µM | A549 > 100 µM | SK-MEL-28 31.9 µM | SNB-75 25.6 µM | TK-10 > 100 µM | KM12 60.4 µM | CAKI-1 > 100 µM | SF-539 > 100 µM | NCI-H23 > 100 µM | IGROV-1 62.7 µM | T47D > 100 µM | HOP-92 27.7 µM | SN12C > 100 µM | MOLT-4 25.2 µM | MDA-MB-231 41.3 µM | BT-549 > 100 µM | SNB-19 > 100 µM | Hs-578T > 100 µM | SR 22.9 µM | HOP-62 > 100 µM | HCC 2998 23 µM | PC-3 35 µM | NCI-H460 72.3 µM | OVCAR-5 > 100 µM | HT-29 33.5 µM | NCI-H226 > 100 µM | Malme-3M 58.1 µM | OVCAR-8 > 100 µM | SK-OV-3 > 100 µM | OVCAR-4 > 100 µM | U-251 > 100 µM | NCI-H522 > 100 µM | HCT-116 66.8 µM
48.1 µM: HCT-15

Cc1ccc(C)n1-n1c(-c2ccccc2)n[nH]c1=O
> 100 µM: HCT-15
inactive: RXF 393 > 100 µM | UACC-257 > 100 µM | CCRF-CEM > 100 µM | MDA-MB-435 21.2 µM | SK-MEL-2 > 100 µM | SF-295 > 100 µM | ACHN > 100 µM | COLO 205 > 100 µM | UO-31 > 100 µM | OVCAR-3 > 100 µM | RPMI-8226 > 100 µM | SF-268 > 100 µM | LOX IMVI > 100 µM | MDA-N 24.8 µM | MCF7 > 100 µM | SK-MEL-5 > 100 µM | SW-620 > 100 µM | K562 53.7 µM | 786-0 > 100 µM | DU-145 > 100 µM | A498 > 100 µM | M14 > 100 µM | NCI/ADR-RES > 100 µM | UACC-62 > 100 µM | EKVX > 100 µM | A549 > 100 µM | SK-MEL-28 > 100 µM | SNB-75 > 100 µM | TK-10 > 100 µM | KM12 34.3 µM | CAKI-1 > 100 µM | IGROV-1 > 100 µM | T47D > 100 µM | SN12C > 100 µM | MOLT-4 > 100 µM | MDA-MB-231 > 100 µM | BT-549 > 100 µM | SNB-19 > 100 µM | Hs-578T > 100 µM | SR 51.9 µM | HOP-62 > 100 µM | HCC 2998 87.7 µM | PC-3 > 100 µM | NCI-H460 > 100 µM | OVCAR-5 > 100 µM | HT-29 > 100 µM | NCI-H226 > 100 µM | Malme-3M > 100 µM | OVCAR-8 > 100 µM | SK-OV-3 > 100 µM | OVCAR-4 > 100 µM | U-251 > 100 µM | NCI-H522 > 100 µM | HCT-116 > 100 µM

Cc1cc(C)nc(NS(=O)(=O)c2ccc(NNc3c4ccccc4nc4c(C(=O)Nc5ccc(S(=O)(=O)Nc6cc(C)on6)cc5)cccc34)cc2)n1
51.1 µM: HCT-15
inactive: RXF 393 44.1 µM | UACC-257 73.6 µM | CCRF-CEM 23.1 µM | MDA-MB-435 41.5 µM | SK-MEL-2 22.7 µM | SF-295 57.1 µM | ACHN 31.3 µM | COLO 205 36.4 µM | UO-31 34.7 µM | OVCAR-3 20.4 µM | RPMI-8226 42.9 µM | SF-268 27.4 µM | LOX IMVI 32.3 µM | MDA-N 44.2 µM | MCF7 50.8 µM | SK-MEL-5 31.3 µM | SW-620 39.5 µM | K562 34.5 µM | 786-0 51.6 µM | DU-145 49.2 µM | M14 53.2 µM | NCI/ADR-RES > 100 µM | UACC-62 46.3 µM | EKVX 19.2 µM | A549 > 100 µM | SNB-75 30.9 µM | TK-10 54.1 µM | KM12 39.4 µM | CAKI-1 87.5 µM | SF-539 34.9 µM | NCI-H23 46.8 µM | IGROV-1 29 µM | T47D 33.5 µM | HOP-92 23.7 µM | SN12C 37 µM | MOLT-4 32.5 µM | MDA-MB-231 33.1 µM | BT-549 72.1 µM | SNB-19 48 µM | Hs-578T 51.4 µM | SR 24.9 µM | HOP-62 82 µM | HCC 2998 23.2 µM | PC-3 34.8 µM | NCI-H460 40.9 µM | OVCAR-5 23.9 µM | HT-29 23.2 µM | NCI-H226 25.8 µM | Malme-3M 53.7 µM | OVCAR-8 35.6 µM | SK-OV-3 29 µM | OVCAR-4 46.3 µM | U-251 26.7 µM | HL-60 30.8 µM | NCI-H522 28.2 µM | HCT-116 31.3 µM
